Measurements taken from ChEMBL document CHEMBL1148418, “BMS-201620: a selective beta 3 agonist” (Bioorg Med Chem Lett, 2004).

What follows are compounds tested on Monkey (assay: Compound was tested for in vivo lipolysis in african green monkeys after iv administration). Conditions: Cercopithecidae, in Primates.
Type: functional

| Compound | ED50 [mg/kg] |
| --- | --- |
| COc1ccc([C@H](NC[C@H](O)c2ccc(O)c(NS(C)(=O)=O)c2)C(=O)Nc2ccc3c(c2)OCO3)cc1 (stereo in doubt; 17) | 0.08 |
| CCOP(=O)(Cc1ccc(NC(=O)[C@@](C)(NC[C@H](O)c2ccc(O)c(NS(C)(=O)=O)c2)c2ccc(OC)cc2)cc1)OCC | 0.1 |
| COc1ccc([C@](C)(NC[C@H](O)c2ccc(O)c(NS(C)(=O)=O)c2)C(=O)Nc2ccc(Cl)cc2)cc1 | 0.07 |

Organism: Cavia porcellus
Assay: Intrinsic activity was determined using spontaneously beating guinea pig atria by measuring contraction acceleration relative to isoproterenol response
Type: functional
Conditions: not given

| Compound | IA [%] |
| --- | --- |
| COc1ccc([C@](C)(NC[C@H](O)c2ccc(O)c(NS(C)(=O)=O)c2)C(=O)Nc2cccc(C)c2)cc1 | 73 |
| COc1ccc([C@H](NC[C@H](O)c2ccc(O)c(NS(C)(=O)=O)c2)C(=O)Nc2ccc3c(c2)OCO3)cc1 (stereo in doubt; 17) | 93 |
| COc1ccc([C@](C)(NC[C@H](O)c2ccc(O)c(NS(C)(=O)=O)c2)C(=O)Nc2cccc(Br)c2)cc1 | 50 |
| COc1ccc([C@](C)(NC[C@H](O)c2ccc(O)c(NS(C)(=O)=O)c2)C(=O)Nc2cc(Cl)cc(Cl)c2)cc1 | 13 |
| COc1ccc([C@](C)(NC[C@H](O)c2ccc(O)c(NS(C)(=O)=O)c2)C(=O)Nc2cccc(CN)c2)cc1 | 91 |
| COc1ccc([C@](C)(NC[C@H](O)c2ccc(O)c(NS(C)(=O)=O)c2)C(=O)Nc2ccc(Cl)cc2F)cc1 | 43 |
| COc1ccc([C@](C)(NC[C@H](O)c2ccc(O)c(NS(C)(=O)=O)c2)C(=O)Nc2cccc(OCC(=O)O)c2)cc1 | 87 |
| COc1ccc([C@](C)(NC[C@H](O)c2ccc(O)c(NS(C)(=O)=O)c2)C(=O)Nc2cccc(Cl)c2)cc1 | 50 |
| COc1ccc([C@](C)(NC[C@H](O)c2ccc(O)c(NS(C)(=O)=O)c2)C(=O)Nc2ccccc2OC)cc1 | 60 |
| COc1ccc([C@](C)(NC[C@H](O)c2ccc(O)c(NS(C)(=O)=O)c2)C(=O)Nc2ccc(OCCN(C)C)cc2)cc1 | 92 |
| COc1ccc([C@](C)(NC[C@H](O)c2ccc(O)c(NS(C)(=O)=O)c2)C(=O)Nc2cccc(OCCN(C)C)c2)cc1 | 85 |
| COc1ccc([C@](C)(NC[C@H](O)c2ccc(O)c(NS(C)(=O)=O)c2)C(=O)Nc2cc(Cl)c(Cl)c(Cl)c2)cc1 | 15 |
| COc1ccc([C@](C)(NC[C@H](O)c2ccc(O)c(NS(C)(=O)=O)c2)C(=O)Nc2ccc(C)cc2)cc1 | 90 |
| CCOP(=O)(Cc1ccc(NC(=O)[C@@](C)(NC[C@H](O)c2ccc(O)c(NS(C)(=O)=O)c2)c2ccc(OC)cc2)cc1)OCC | 55 |
| COc1ccc([C@](C)(NC[C@H](O)c2ccc(O)c(NS(C)(=O)=O)c2)C(=O)Nc2ccc(Cl)cc2)cc1 | 62 |
| COc1ccc([C@](C)(NC[C@H](O)c2ccc(O)c(NS(C)(=O)=O)c2)C(=O)Nc2ccccc2C)cc1 | 83 |
| COc1ccc([C@](C)(NC[C@H](O)c2ccc(O)c(NS(C)(=O)=O)c2)C(=O)Nc2cc(OC)c(OC)c(OC)c2)cc1 | 66 |
| COc1ccc([C@](C)(NC[C@H](O)c2ccc(O)c(NS(C)(=O)=O)c2)C(=O)Nc2ccc(OCC(=O)O)cc2)cc1 | 100 |
| COc1ccc(NC(=O)[C@@](C)(NC[C@H](O)c2ccc(O)c(NS(C)(=O)=O)c2)c2ccc(OC)cc2)cc1 | 85 |
| COc1ccc([C@](C)(NC[C@H](O)c2ccc(O)c(NS(C)(=O)=O)c2)C(=O)Nc2cccc(O)c2)cc1 | 96 |
| COc1ccc([C@](C)(NC[C@H](O)c2ccc(O)c(NS(C)(=O)=O)c2)C(=O)Nc2ccc(Cl)c(Cl)c2)cc1 | 8 |
| COc1ccc([C@](C)(NC[C@H](O)c2ccc(O)c(NS(C)(=O)=O)c2)C(=O)Nc2ccc(OC)c(OC)c2)cc1 | 89 |
| COc1ccc([C@H](NC[C@H](O)c2ccc(O)c(NS(C)(=O)=O)c2)C(=O)Nc2ccccc2)cc1 (stereo in doubt; 16) | 95 |
| COc1ccc([C@](C)(NC[C@H](O)c2ccc(O)c(NS(C)(=O)=O)c2)C(=O)Nc2ccc(O)cc2)cc1 | 90 |
| COc1ccc([C@](C)(NC[C@H](O)c2ccc(O)c(NS(C)(=O)=O)c2)C(=O)Nc2ccc3sc(C)nc3c2)cc1 | 70 |
| COc1ccc([C@](C)(NC[C@H](O)c2ccc(O)c(NS(C)(=O)=O)c2)C(=O)Nc2cccc(OC)c2)cc1 | 85 |
